Assay results from PMC8072159, “5-Bis-(2,6-difluoro-benzylidene) Cyclopentanone Acts as a Selective 11β-Hydroxysteroid Dehydrogenase one Inhibitor to Treat Diet-Induced Nonalcoholic Fatty Liver Disease in Mice” (Frontiers in Pharmacology, 2021).
Entries after “also recorded” stand apart in the source; their conditions may differ.

Test system: HFD-induced NAFLD mice
Test: HFD-induced NAFLD mouse model, WZS08 by gavage for 100 days
Type: in vivo
Settings: for Body weight / Dorsal adipose weight / Epididymal adipose weight / Mesenteric adipose weight / Thymic adipose weight / Total hepatic weight: mean ± SEM
Method: The KM mice were randomly divided into six groups, including a regular chow (Group C), HFD (Group M) as a model control group, HFD supplemented with various doses of WZS08, 1 (Group M + W1), 2 (Group M + W2), and 4 (Group + W4) mg/kg, 20 mice per group. Mice were housed five animals per cage. Mice were maintained at a constant temperature (25 ± 3°C) for a 12-h light-dark cycle with free access to food and water. After a week of diet adaptation, the mice were fed with WZS08 dissolved in 1% sodium carboxymethyl cellulose (CMC-Na) or 1% CMC-Na for 100 days alone. Each mouse was gavaged daily with 0.5 ml vehicle (1% CMC-Na) or drug in 1%CMC-Na. By the end of the treatment, the mice were killed by CO2, and the weights of body, liver, epididymal fat, mesenteric fat, and dorsal fat were measured. […]
Quantitative Real-Time Polymerase Chain Reaction
Total RNA was isolated from mouse liver using Trizol kit according to the manufacturer’s instruction. To reduce genomic DNA contamination, total RNAs were treated with ribonuclease-free deoxyribonuclease I (Thermo Fisher Scientific, Waltham, MA, United States) for 1 h at 37°C. 1 μg RNA was used to synthesize the first strand cDNA by reverse transcription kit. qPCR was carried out using SYBR GREEN as an indicator using Bio-Rad real time PCR system. The standard curve method was adopted as previously described ([Lv et al., 2019]). The Ct values were recorded after a series of diluted standards of mouse liver cDNAs, and the linear equation of Ct values vs. logarithm [dilution of standards] was generated, and the concentration of the target mRNA was calculated according to their Ct value. The result was normalized to Gapdh (encoding GAPDH) and Rps16 as the internal controls. The mRNA levels of Acs2 (encoding acetyl-CoA synthetase2), Hsd11b1 (encoding 11β–HSD1), Ldlr (encoding LDLR), Plin2 (encoding PLIN2), and Plin3 (encoding PLIN3) were evaluated. There were no changes in Gapdh and Rps16 mRNA levels between groups and the test mRNA levels were adjusted to Gapdh. Primer information is listed in Supplementary Table S1.
Measurement of Serum Insulin and Corticosterone Levels and Blood Lipid Levels
On the last day of the experiment, the mice were fasted for 6 h (with free access to drinking water), and then blood and tissues were sampled. Blood samples were collected. The blood sample was centrifuged at 5000 rpm for 10 min to collect the serum, and the serum was frozen at -40°C until use. According to standard clinical protocols, the levels of serum glucose, low-density lipoprotein (LDL), high-density lipoprotein (HDL), total cholesterol, and triglyceride (TG) were measured using Hitachi 7600 biochemical analyzer (Hitachi, Japan). In addition, serum insulin and corticosterone levels were evaluated using the ultrasensitive mouse insulin ELISA kit (CrystalChem, IL, USA) and the commercially available corticosterone ELISA kit (Abnova, Taiwan, China) according to the manufacturers’ instructions.
Protein Expression Analysis
Total hepatic protein extract was obtained as previously described ([Lazaro et al., 2013]). The protein was separated by SDS–PAGE and transferred to a 0.2 μm PVDF membrane. The primary antibodies used were: 11β-HSD1 (rabbit polyclonal antibody, Abcam, catalog # ab39364; being blocked with 11β-HSD1 peptide, #ab101097, San Francisco, CA), ACS2 (Abcam, catalog # ab229958, San Francisco, CA, United States), and β-actin (ACTB, Cell signaling, Danvers, MA, United States). Goat anti-rabbit HRP was used as a secondary antibody. Finally, chemiluminescence emitted by the immunoreactive protein was detected by an ECL advance agent, and visualized with a MicroChemi Imaging system and qualified by a densitometry using AlphaEaseFC (ProteinSample, CA, United States). Relative protein levels were normalized by ACTB.
Before hematoxylin and eosin (HE) staining, the livers of KM mice were fixed in 10% formalin, dehydrated, and embedded in paraffin, as previously described ([Andres-Manzano et al., 2015]). […]

[1] = HFD mice, 4 mg/kg (M + W4), 100 days
[2] = HFD mice, 1, 2, and 4 mg/kg, vs Group M, qPCR
[3] = HFD plus 1 mg/kg WZS08 (M + W1), 100 days
[4] = HFD plus 2 mg/kg WZS08 (M + W2), 100 days
[5] = HFD plus 4 mg/kg WZS08 (M + W4), 100 days

SMILES: O=C1/C(=C/c2c(F)cccc2F)CC/C1=C\c1c(F)cccc1F [WZS08, (2E,5E)-2,5-bis(2,6-difluorobenzylidene) Cyclopentanone]
- Fabp4 expression (HFD mice, 1 mg/kg, 100 days): up-regulated
- hepatic fat ratio (HFD mice, 1 mg/kg, 100 days): significantly reduced
- serum cholesterol (HFD mice, 1 mg/kg, 100 days): significantly reduced
- serum low-density lipoprotein (HFD mice, 1 mg/kg, 100 days): significantly reduced
- serum triglycerides (HFD mice, 1 mg/kg, 100 days): significantly reduced
- serum HDL level [1]: greatly reduced
- serum LDL level [1]: greatly reduced
- serum cholesterol level [1]: greatly reduced
- serum triglyceride level [1]: greatly reduced
- insulin index (HFD mice, 4 mg/kg, 100 days, vs HFD group): significantly lowered
- serum insulin levels (HFD mice, 4 mg/kg, 100 days, vs HFD group, 4 mg/kg): significantly lowered; also recorded: completely reduced it to control level
- liver lipid content (HE staining) (HFD mice, 1, 2, 4 mg/kg): remarkably reduced
- insulin resistance (HOMA-IR) (HFD mice, 1, 2, 4 mg/kg, 100 days): dose-dependently reduced
- body weight changes (HFD mice, 1, 2, 4 mg/kg, 100 days, vs HFD control): dose-dependently reduced
- Acs2 expression in liver [2]: up-regulated
- Plin2 expression in liver [2]: down-regulated
- morphology of the non-alcoholic fatty liver (HFD mice, 100 days): significantly improved
- liver fat content (HFD mice, doses of 2 and 4 mg/kg): significantly decreased
- Plin2 expression (HFD mice, liver, 1 mg/kg, 100 days): down-regulated
- Body weight [3]: 52.46 ± 1.28 g
- Dorsal adipose weight [3]: 0.68 ± 0.092 g
- Epididymal adipose weight [3]: 2.05 ± 0.230 g
- Mesenteric adipose weight [3]: 0.64 ± 0.074 g
- Thymic adipose weight [3]: 0.08 ± 0.01 g
- Total hepatic weight [3]: 2.79 ± 0.12 g
- Body weight [4]: 50.25 ± 1.01 g
- Dorsal adipose weight [4]: 0.54 ± 0.049 g
- Epididymal adipose weight [4]: 1.52 ± 0.138 g
- Mesenteric adipose weight [4]: 0.55 ± 0.043 g
- Thymic adipose weight [4]: 0.06 ± 0.00 g
- Total hepatic weight [4]: 2.48 ± 0.06 g
- Body weight [5]: 49.00 ± 1.22 g
- Dorsal adipose weight [5]: 0.55 ± 0.070 g
- Epididymal adipose weight [5]: 1.54 ± 0.20 g
- Mesenteric adipose weight [5]: 0.54 ± 0.048 g
- Thymic adipose weight [5]: 0.077 ± 0.00 g
- Total hepatic weight [5]: 2.29 ± 0.06 g
- blood glucose (HFD-treated mice, oral administration): did not show significant changes
